Key:
Format in all cases: functional, cell-based
SiHa = test: Antiproliferative activity against human SiHa cells assessed as inhibition of cell growth by MTT assay
C-33-A = test: Antiproliferative activity against human C-33-A cells assessed as reduction in cell viability measured after 48 hrs by MTT assay
[1] = Antiproliferative activity against human CaLo cells assessed as reduction in cell viability
HepG2 = test: Antiproliferative activity against human HepG2 cells assessed as inhibition of cell proliferation after 72 hrs by MTT assay; settings: HepG2, 72 h
A2780 = test: Antiproliferative activity against human A2780 cells assessed as inhibition of cell growth
LoVo = test: Cytotoxicity against human LoVo cells incubated for 72 hrs by MTT assay
A549 = test: Antiproliferative activity against human A549 cells assessed as cell growth inhibition measured after 72 hrs by MTT assay; settings: A549, 72 h
PC-3 = test: Cytotoxicity against human PC-3 cells assessed as reduction in cell viability
HeLa [2] = test: Cytotoxicity against human HeLa cells assessed as reduction in cell viability
MCF7 [3] = test: Antiproliferative activity against human MCF7 cells assessed as cell growth inhibition measured after 72 hrs by MTT assay; settings: MCF7, 72 h
Bel-7402 = test: Cytotoxicity against human Bel-7402 cells measured after 72 hrs by MTT assay; settings: Bel-7402, 72 h
MCF7 [4] = test: Antiproliferative activity against human MCF7 cells assessed as inhibition of cell growth incubated for 24 hrs by MTT assay; settings: MCF7, 24 h
SGC-7901 [5] = test: Antiproliferative activity against human SGC-7901 cells assessed as cell growth inhibition
HeLa [6] = test: Antiproliferative activity against human HeLa cells assessed as reduction in cell growth measured after 48 hrs by MTT assay
RD = test: Antiproliferative activity against human RD cells assessed as cell growth inhibition measured after 72 hrs by MTT assay
SGC-7901 [7] = test: Cytotoxicity against human SGC-7901 cells assessed as reduction in cell viability measured after 48 hrs by MTT colorimetric assay; settings: SGC-7901, 48 h
Hep 3B2 = test: Cytotoxicity against human Hep3B cells assessed as inhibition of cell growth by MTT assay
SMMC-7721 = test: Antiproliferative activity against human SMMC-7721 cells assessed as reduction in cell growth by SRB assay
MDA-MB-453 = test: Antiproliferative activity against human MDA-MB-453 cells assessed as reduction in cell growth after 72 hrs by MTT assay; settings: MDA-MB-453, 72 h
MCF7 [8] = test: Antiproliferative activity against human MCF7 cells assessed as cell growth inhibition incubated for 6 days by SRB assay; settings: MCF7, 144 h
MDA-MB-231 = test: Antiproliferative activity against human MDA-MB-231 cells assessed as cell growth inhibition
CAMA-1 = test: Antiproliferative activity against human CAMA-1 cells assessed as cell growth inhibition
SK-BR-3 = test: Antiproliferative activity against human SK-BR-3 cells incubated for 72 hrs by MTT assay; settings: SK-BR-3, 72 h

SMILES: O=C1C(Cl)=C(NC(Cc2c[nH]c3ccccc23)C(=O)O)C(=O)c2ccccc21 (stereo not drawn)
- IC50 (SiHa): 3200 nM
- IC50 (C-33-A): 3 nM
- IC50 [1]: 2690 nM

SMILES: COc1cc(/C=N/NC(=O)c2cn(Cc3ccccc3)c3ccccc23)cc(OC)c1OC
- IC50 (HepG2): 0.63 nM

SMILES: COc1cc(C2CCCCc3c2ccc2c3ccn2C)cc(OC)c1OC (stereo not drawn)
- IC50 (A2780): 37 nM
- IC50 (LoVo): 49 nM
- IC50 (A549): 22 nM
- IC50 (PC-3): 47 nM
- IC50 (HeLa [2]): 56 nM
- IC50 (MCF7 [3]): 51 nM
- IC50 (Bel-7402): 39 nM

SMILES: O=C(c1cc2ccc(Cl)cc2n1Cc1cccc2ccccc12)N(CCO)[C@@H]1CC(=O)N2C[C@@H]3CCCN4CCC[C@@H]([C@H]34)[C@H]2C1
- IC50 (MCF7 [4]): 1200 nM
- IC50 (SGC-7901 [5]): 1100 nM
- IC50 (HeLa [6]): 900 nM

SMILES: CC(=O)O[C@H]1C(=O)[C@@]2(C)[C@H]([C@H](OC(=O)c3ccccc3)[C@]3(O)C[C@H](OC(=O)[C@H](O)[C@@H](NC(=O)c4ccccc4)c4ccccc4)C(C)=C1C3(C)C)[C@]1(OC(C)=O)CO[C@@H]1C[C@@H]2O [PACLITAXEL]
- IC50 (RD): > 10000 nM
- IC50 (SGC-7901 [7]): 14400 nM

SMILES: O=C(/C=C(O)/C=C/c1c[nH]c2ccccc12)/C=C/c1c[nH]c2ccccc12
- IC50 (Hep 3B2): 14000 nM

SMILES: CC[C@@]1(O)C(=O)OCc2c1cc1n(c2=O)Cc2cc3ccccc3nc2-1 [CAMPTOTHECIN]
- IC50 (SMMC-7721): 3950 nM
- IC50 (MDA-MB-453): < 10 nM
- IC50 (MCF7 [8]): < 10 nM
- IC50 (MDA-MB-231): < 10 nM
- IC50 (CAMA-1): 70 nM
- IC50 (SK-BR-3): < 10 nM
